How the values were obtained:
human recombinant PDE5 = human recombinant PDE5 (Homo sapiens, UniProt O76074); experiment: Inhibitory effect on cGMP-PDE (one-step assay, 8-[H3]-cGMP)
PDE5 (bovine aorta) = molecular target: T1, PDE5 (bovine aorta) (Bos taurus, UniProt Q28156); experiment: Inhibitory effect on cGMP-PDE, enzyme from bovine aorta; type: biochemical; settings: vs. bovine aorta
T1 construct: from tissue; host or cells: bovine aorta
Description: Biophys. Acta, 384, 430 (1975).

| Structure (SMILES) | IC50 (human recombinant PDE5) [nM] | melting point [°C] | other results |
| --- | --- | --- | --- |
| CN1CCN2[C@@H](c3ccc4c(c3)OCO4)c3[nH]c4ccccc4c3C[C@@H]2C1=O [Example 2, (6S,12aR)-6-Benzo[1,3]dioxol-5-yl-2-methyl-3,4,6,7,12,12a-hexahydro-2H-pyrazino-[1′2′:1,6]pyrido[3,4-b]indol-1-one] | 575 | – | – |
| CN1CCN2[C@H](c3ccc4c(c3)OCO4)c3[nH]c4ccccc4c3C[C@@H]2C1=O [Example 1, (6R,12aR)-6-Benzo[1,3]dioxol-5-yl-2-methyl-3,4,6,7,12,12a-hexahydro-2H-pyrazino[1′,2′:1,6]pyrido[3,4-b]indole-1-one] | 54 | – | – |
| O=C1CNC[C@H]2Cc3c([nH]c4ccccc34)[C@@H](c3ccc4c(c3)OCO4)N12 [Example 4] | 2.3 | – | – |
| CN1CC(=S)N2[C@H](c3ccc4c(c3)OCO4)c3[nH]c4ccccc4c3C[C@@H]2C1=S | – | 158 to 162 | – |
| CN1CCN2[C@@H](c3ccc4c(c3)OCO4)c3[nH]c4ccccc4c3C[C@H]2C1=O [Example 3] | – | – | IC50 (PDE5 (bovine aorta)): 100 nM |
| CN1CC(=S)N2[C@H](c3ccc4c(c3)OCO4)c3[nH]c4ccccc4c3C[C@H]2C1=S [Example 6, (6R,12aS)-6-Benzo[1,3]dioxol-5-yl-2-methyl 2,3,6,7,12,12a-hexahydropyrazino[1′,2′:1,6]pyrido[3,4-b]indole-1,4-dithione] | – | 177 to 182 | – |
